The values below come from US5276058A, “3,4-dihydroxychalcone derivatives” (Nippon Hypox Laboratories Incorporated, priority 1993, dated 1994).

Test [1] deals with enzymes which are to cause inflammation. Conditions: in vitro; PROSTAGLADINSS (1985, 30 (3) 357); cited from earlier work.
For test [2] the following is noted: Food Chemistry (1983, 12) 205-212; cited from earlier work.
Test [3] has as its system ear swelling induced by arachidonic acid. Kind of test: topical anti-inflammatory activity test (arachidonic acid-induced ear swelling). In kind it is in vivo, male ICR mice. Conditions: Mus musculus, 1 hour before 1 mg arachidonic acid, read-out: Ratio of inhibition of ear swelling induced by arachidonic acid; for inhibition in vivo at 30 µg/ear: 30 μg/ear; for inhibition in vivo at 10 µg/ear: 10 μg/ear; for inhibition in vivo at 100 µg/ear: 100 μg/ear. The method, then:
The 3,4-dihydroxychalcone derivatives shown in Table 9, as test compounds, were subjected to the following topical anti-inflammatory activity test.
Acetone solutions were prepared from the test compounds. Then, the acetone solution were applied to the right ears of male ICR mice such that the dose of each test compound was 10 μg/ear, 30 μg/ear of 100 μg/ear. One hour after the application, 1 mg of arachidonic acid was applied to each right ear to cause ear swelling.
One hour after the application of the arachidonic acid, the mice were sacrificed by vertebral cervical dislocation, and the right and left ears were taken and separately weighed. The weight of the right ear to which the arachidonic acid had been applied was divided by the weight of the non-treated left ear to obtain a swelling ratio.
The effect of each test compound was shown in the following manner. The relative values of the swelling ratios of individual mice were calculated on an assumption that the average value of the swelling ratios of the solvent control group was taken as 100, and amounts of their decreases were expressed by percentages (inhibition ratios).

In test [4] the target is T1, cyclooxygenase (Ovis aries, UniProt P05979).
T1 construct: containing sheep seminal vesicle; from tissue; host or cells: sheep seminal vesicle
T1 sequence (P05979 25-600): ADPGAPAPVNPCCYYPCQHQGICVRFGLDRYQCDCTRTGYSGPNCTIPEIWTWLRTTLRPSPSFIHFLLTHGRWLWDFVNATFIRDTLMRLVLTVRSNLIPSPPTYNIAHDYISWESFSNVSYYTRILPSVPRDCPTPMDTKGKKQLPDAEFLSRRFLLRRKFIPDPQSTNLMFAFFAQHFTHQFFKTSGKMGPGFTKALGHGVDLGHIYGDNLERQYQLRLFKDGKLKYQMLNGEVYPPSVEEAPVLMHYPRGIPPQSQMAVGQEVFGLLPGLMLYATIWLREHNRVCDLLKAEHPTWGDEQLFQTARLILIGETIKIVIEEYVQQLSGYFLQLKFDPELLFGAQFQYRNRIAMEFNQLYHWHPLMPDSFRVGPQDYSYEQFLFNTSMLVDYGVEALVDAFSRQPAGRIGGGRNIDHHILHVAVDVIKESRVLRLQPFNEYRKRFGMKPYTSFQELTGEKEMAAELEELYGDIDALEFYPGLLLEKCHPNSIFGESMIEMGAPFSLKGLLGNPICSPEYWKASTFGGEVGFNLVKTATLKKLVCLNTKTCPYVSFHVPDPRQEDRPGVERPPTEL
As to the kind of experiment: cyclooxygenase inhibiting activity test. The class given is biochemical. Conditions: sheep seminal vesicle, pH 7.4, prostaglandin E2 formation. How it is done: A 50 mM phosphoric acid buffer solution (pH 7.4) containing sheep seminal vesicle, 2 mM of glutathione, 0.6 mM of epinephrine and 80 μM of EDTA-2Na preheated at 37° C. for 2 minutes, and then ^14 C-arachidonic acid was added to the reaction mixture. The mixture was heated for 10 minutes to form prostaglandin E2, and the radiation activity of the formed prostaglandin E2 was taken as cyclooxygenase activity. The 3,4-dihydroxychalcone derivatives shown in Table 10 were selected as test compounds. The cyclooxygenase inhibiting activity of each test compound was evaluated as follows. Each test compound was independently added to the above phosphoric acid buffer solution, and the radiation activity of the formed prostaglandin E2 was measured in the same manner as above. The inhibition ratio of each test compound was determined in comparison with that of the control group, and the value of IC50 was calculated by a conventional method.

Test [5] addresses T2, 5-lipoxygenase (Rattus norvegicus, UniProt P12527).
T2 construct: endogenous in cells; host or cells: RBL-1 cell homogenate
T2 sequence (P12527 1-673): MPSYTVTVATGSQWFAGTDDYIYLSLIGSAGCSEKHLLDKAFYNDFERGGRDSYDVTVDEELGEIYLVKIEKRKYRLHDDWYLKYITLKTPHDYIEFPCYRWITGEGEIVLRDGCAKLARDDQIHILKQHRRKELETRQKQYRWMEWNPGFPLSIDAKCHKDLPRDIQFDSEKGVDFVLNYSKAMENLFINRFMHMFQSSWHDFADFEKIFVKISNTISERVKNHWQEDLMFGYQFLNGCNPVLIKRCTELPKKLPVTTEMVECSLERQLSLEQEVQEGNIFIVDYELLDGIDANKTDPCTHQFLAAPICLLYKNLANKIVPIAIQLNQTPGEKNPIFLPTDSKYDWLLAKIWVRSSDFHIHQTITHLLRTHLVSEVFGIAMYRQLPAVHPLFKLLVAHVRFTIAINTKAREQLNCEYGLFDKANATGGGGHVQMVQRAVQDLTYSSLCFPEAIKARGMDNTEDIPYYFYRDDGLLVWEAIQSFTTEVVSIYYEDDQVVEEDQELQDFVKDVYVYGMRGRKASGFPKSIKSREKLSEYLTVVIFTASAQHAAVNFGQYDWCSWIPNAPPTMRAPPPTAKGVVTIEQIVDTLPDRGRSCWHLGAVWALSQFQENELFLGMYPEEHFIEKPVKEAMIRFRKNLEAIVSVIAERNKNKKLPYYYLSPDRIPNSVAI
Kind of test: 5-lipoxygenase inhibiting activity test (RBL-1 cell homogenate). The class given is biochemical. Conditions: pH 7.4, 37° C., 5-HETE formation. The method, then: RBL-1 cell homogenate was suspended in a 50 mM phosphoric acid buffer solution (pH 7.4) containing 2 mM of CaCl2, 0.25 mM of sucrose, 1 mM of EDTA-2Na and glutathione, and the mixture was heated to 37° C. Arachidonic acid was added to the mixture to form 5-HETE (5-hydroxyeicosatetraenonic acid), and the 5-HETE was measured for an amount by a high-performance liquid chromatography.
The 3,4-dihydroxychalcone derivatives shown in Table 11 were selected as test compounds. The 5-lipoxygenase inhibiting activity of each test compound was evaluated as follows. Each test compound was independently added to the above phosphoric acid buffer solution, and the 5-HETE amount was measured in the same manner as above. The inhibition ratio of each test compound was determined in comparison with that of the control group, and the value of IC50 was calculated by a conventional method.

For the molecule `O=C(/C=C/c1ccc(O)c(O)c1)c1ccccc1O` [2',3,4-trihydroxychalcone], the “inhibiting activity against enzymes which are to cause inflammation” value (“inhibiting activity” below) in test [1] was “inhibiting activity against enzymes which are to cause inflammation”.
For `O=C(/C=C/c1ccc(O)c(O)c1)c1ccc(O)cc1O` [2',4',3,4-tetrahydroxychalcone], in test [1], the “inhibiting activity” value is reported as “inhibiting activity against enzymes which are to cause inflammation”.
Turning to `O=C(/C=C/c1ccc(O)c(O)c1)c1ccccc1` [3,4-dihydroxychalcone], in test [2], the “activity to inhibit the oxidation of edible oils” value was “activity to inhibit the oxidation of edible oils”. For the same molecule, the “inhibiting activity” value in test [1] is “inhibiting activity against enzymes which are to cause inflammation”.
As to `O=C(/C=C/c1ccc(O)c(O)c1)c1ccc(O)cc1` [4',3,4-trihydroxychalcone], in test [1], the “inhibiting activity” value is “inhibiting activity against enzymes which are to cause inflammation”.
One may read the IC50 as the concentration that inhibits the measured activity by half. `COc1ccc(OC)c(C(=O)/C=C/c2ccc(O)c(O)c2)c1` [Example 1, 2',5'-dimethoxy-3,4-dihydroxychalcone]: in test [3], the inhibition in vivo at 30 µg/ear was determined as 77%. Also, the IC50 stood at 17.1 µM in test [4] and 0.0078 µM in test [5].
Regarding `COc1ccc(C(=O)C=Cc2ccc(O)c(O)c2)c(OC)c1` [Example 2], in test [3], the inhibition in vivo at 30 µg/ear stood at 56%. This molecule also displayed an IC50 in test [4] of 156 µM.
On the same counts, the results for `O=C(C=Cc1ccc(O)c(O)c1)c1cc(O)ccc1O` [Example 3] are 39% and 169 µM.
For the molecule `COc1ccc(C(=O)C=Cc2ccc(O)c(O)c2)c(O)c1` [Example 4], in test [3], the inhibition in vivo at 30 µg/ear is 35%. Also, the IC50 in test [4] worked out at 64.8 µM.
Regarding `Cc1ccc(O)c(C(=O)C=Cc2ccc(O)c(O)c2)c1` [Example 5], in test [3], the inhibition in vivo at 10 µg/ear was 31% and the inhibition in vivo at 30 µg/ear amounted to 52%. Besides, the half-inhibitory concentration (IC50) in test [4] worked out at 121 µM.
With `COc1ccc(O)c(C(=O)C=Cc2ccc(O)c(O)c2)c1` [Example 6], in test [3], the inhibition in vivo at 10 µg/ear came out at 7.6%, the inhibition in vivo at 30 µg/ear came to 38% and the inhibition in vivo at 100 µg/ear was 43%. This molecule also yielded a half-maximal inhibitory concentration (IC50) in test [4] of 41.3 µM.
Take `CC(C)c1ccc(O)c(C(=O)C=Cc2ccc(O)c(O)c2)c1` [Example 7]: in test [3], the inhibition in vivo at 30 µg/ear worked out at 9%. For the same molecule, half-maximal inhibition in test [4] (IC50) was put at 37.3 µM.
For the molecule `CC(C)Oc1ccc(O)c(C(=O)C=Cc2ccc(O)c(O)c2)c1` [Example 8], in test [3], the inhibition in vivo at 30 µg/ear amounted to 67%.
Turning to `CCCCOc1ccc(O)c(C(=O)C=Cc2ccc(O)c(O)c2)c1` [Example 9], the inhibition in vivo at 30 µg/ear in test [3] is 31%.
In the case of `CCOc1ccc(O)c(C(=O)C=Cc2ccc(O)c(O)c2)c1` [Example 10], the inhibition in vivo at 30 µg/ear in test [3] stood at 43%. For the same molecule, the midpoint of inhibition in test [4], the IC50, lay at 129 µM.
For the molecule `COc1ccc(C)cc1C(=O)C=Cc1ccc(O)c(O)c1` [Example 11], in test [3], the inhibition in vivo at 30 µg/ear is 32%. The midpoint of inhibition in test [4], the IC50, lay at 29.7 µM.
In the case of `COc1cccc(OC)c1C(=O)C=Cc1ccc(O)c(O)c1` [Example 12], the inhibition in vivo at 30 µg/ear in test [3] is 8%.
On to `CCOc1ccc(OC)c(C(=O)C=Cc2ccc(O)c(O)c2)c1` [Example 13], for which, in test [3], the inhibition in vivo at 30 µg/ear is 13%. For the same molecule, the IC50 in test [4] turned out to be 26 µM.
The matching figures for `COc1ccc(OC(C)C)cc1C(=O)C=Cc1ccc(O)c(O)c1` [Example 14]: 33% and 59.9 µM.
Turning to `CCOc1ccc(OC)cc1C(=O)C=Cc1ccc(O)c(O)c1` [Example 15], the inhibition in vivo at 30 µg/ear in test [3] was 7.4%. Further, inhibition in test [4] was half-maximal at 3.2 µM (IC50).
Turning to `CCOc1ccc(OCC)c(C(=O)C=Cc2ccc(O)c(O)c2)c1` [Example 16], the inhibition in vivo at 10 µg/ear in test [3] is 7%. In addition, the IC50 in test [4] came to 24.4 µM.
`Cc1cccc(C(=O)C=Cc2ccc(O)c(O)c2)c1` [Example 17]: in test [3], the inhibition in vivo at 30 µg/ear amounted to 28% and the inhibition in vivo at 100 µg/ear is 38%. The same molecule had a half-maximal inhibitory concentration (IC50) in test [4] of 71 µM.
With `Cc1ccc(C(=O)C=Cc2ccc(O)c(O)c2)cc1` [Example 18], the inhibition in vivo at 30 µg/ear in test [3] stood at 27%. In test [4], the IC50 is 210 µM.
In the case of `COc1ccccc1C(=O)C=Cc1ccc(O)c(O)c1` [Example 19], the inhibition in vivo at 30 µg/ear in test [3] stood at 42%. In test [4], this molecule registered an IC50 of 35.3 µM.
Turning to `COc1cccc(C(=O)C=Cc2ccc(O)c(O)c2)c1` [Example 20], in test [3], the inhibition in vivo at 30 µg/ear was 58%. The molecule also showed an IC50 in test [4] of 15.1 µM.
With `COc1ccc(C(=O)C=Cc2ccc(O)c(O)c2)cc1` [Example 21], the inhibition in vivo at 10 µg/ear in test [3] was 45%. Also, the IC50 in test [4] is 488 µM.
On to `CC(C)Oc1ccc(C(=O)C=Cc2ccc(O)c(O)c2)cc1` [Example 22], for which, in test [3], the inhibition in vivo at 30 µg/ear came out at 5%.
As to `CN(C)c1cccc(C(=O)C=Cc2ccc(O)c(O)c2)c1` [Example 23], the inhibition in vivo at 30 µg/ear in test [3] amounted to 19%. This molecule also had an IC50 in test [4] of 40.6 µM.
With `CN(C)c1ccc(C(=O)C=Cc2ccc(O)c(O)c2)cc1` [Example 24], the inhibition in vivo at 30 µg/ear in test [3] amounted to 21%. The same molecule yielded a half-maximal inhibitory concentration (IC50) in test [4] of 808 µM.
The matching figures for `Cc1ccc(C(=O)C=Cc2ccc(O)c(O)c2)c(C)c1` [Example 25]: 43% and 40.5 µM.
Regarding `Cc1ccc(C)c(C(=O)C=Cc2ccc(O)c(O)c2)c1` [Example 26], the inhibition in vivo at 30 µg/ear in test [3] was determined as 58%. In test [4], 43.7 µM corresponded to half-maximal inhibition (IC50).
As to `Cc1cc(C)c(C(=O)C=Cc2ccc(O)c(O)c2)c(C)c1` [Example 27], the inhibition in vivo at 30 µg/ear in test [3] stood at 47%. In addition, in test [4], inhibition was half-maximal at 275 µM (IC50).
`COc1cc(C(=O)C=Cc2ccc(O)c(O)c2)ccc1O` [Example 28]: the inhibition in vivo at 30 µg/ear in test [3] came out at 47%.
With `COc1ccc(C(=O)C=Cc2ccc(O)c(O)c2)cc1OC` [Example 29], in test [3], the inhibition in vivo at 30 µg/ear came to 38%. The molecule also had a half-inhibitory concentration (IC50) in test [4] of 829 µM.
Take `COc1cc(C(=O)C=Cc2ccc(O)c(O)c2)cc(OC)c1OC` [Example 30]: the inhibition in vivo at 30 µg/ear in test [3] came out at 65%.
